Laboratory results from article PMC10319809, “Chronic UCN2 treatment desensitizes CRHR2 and improves insulin sensitivity” (Nature Communications, 2023).
“And” between values parts separate entries of the source, which are not always exact repeats. Identical values can stand only once. Where no end group is shown, it is not given here.

Assays:
[1] = test system: mice; assay: Food intake studies; assay type: in vivo, mouse
Protocol: For acute studies, animals were singly housed and injected IP with saline or 1 mg/kg UCN2 (source). Food intake for the next 24 h was determined by measuring food weight in ceramic bowls within the cage. For the chronic studies, animals were singly housed and injected with Vehicle, EGFP.AAV, or UCN2.AAV. Food weight was measured in ceramic bowls every 24 h for 7 days.

[2] = test system: male mice; assay: Plasma insulin during glucose tolerance test; assay type: in vivo, mouse; conditions: 1 mg/kg IP UCN2
Protocol: All metabolic tests were performed using standard protocols on male littermates (aged: 10–14 weeks). For glucose tolerance tests (GTTs), animals were fasted for 8 h with ad libitum access to water. Fasting glucose measurements were taken before […] oral glucose dose. Blood glucose measurements were taken via tail nick using the AlphaTRAK 2 Glucose Monitoring System (Zoetis, Parsippany-Troy Hills, NJ) at 10, 30, 60, and 120 min after dose. Blood was collected for insulin measurement in EDTA tubes (Becton, Dickinson and Company, Franklin Lakes, NJ) and centrifuged to collect plasma (2000 g for 10 min at 4 °C), which was stored at −80 °C until analysis at 10, 30, 60, and 120 min after dose. Insulin levels were measured using an Ultrasensitive Mouse Insulin ELISA (ALPCO, Salem, NH), according to manufacturer’s instructions. For insulin tolerance tests (ITTs), animals were fasted for 8 h and blood glucose was measured before (0 min) and at 30, 60, 90, and 120 min following IP injection of 0.75 IU/kg of insulin (Humulin R, Eli Lilly, Indianapolis, IN). […]

[3] = molecular target: T1, CRHR2 alpha (Homo sapiens, UniProt Q13324); assay: HTRF cAMP assay in HEK-TREX-CRHR2 alpha cells, with or without UCN2 pre-treatment; assay type: cell-based; conditions: n = 3
T1 construct: host or cells: HEK-TREX-CRHR2 alpha cells, non-induced
T1 sequence (Q13324 1-411): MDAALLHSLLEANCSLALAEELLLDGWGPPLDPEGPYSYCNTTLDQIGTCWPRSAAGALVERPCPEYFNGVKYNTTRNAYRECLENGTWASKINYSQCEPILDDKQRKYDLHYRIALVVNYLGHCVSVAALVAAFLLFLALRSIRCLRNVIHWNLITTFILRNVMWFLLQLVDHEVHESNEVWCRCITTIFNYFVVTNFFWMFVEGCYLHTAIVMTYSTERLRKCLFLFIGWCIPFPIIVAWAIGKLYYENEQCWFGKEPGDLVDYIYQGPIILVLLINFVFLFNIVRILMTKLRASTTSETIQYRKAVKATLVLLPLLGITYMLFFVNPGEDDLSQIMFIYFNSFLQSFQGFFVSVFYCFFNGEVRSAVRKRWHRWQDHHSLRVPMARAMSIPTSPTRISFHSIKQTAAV
Protocol: To determine whether CRHR2 functional desensitization in response to UCN2 occurred tissue-autonomously, we turned to CRHR2-transfected HEK 293 cells.
To measure cell-based CRHR2 agonist activity a HTRF (Homogenous Time-Resolved Fluorescence) cAMP detection kit (Cisbio cAMP dynamic 2 assay kit) was performed in non-induced HEK-TREX-CRHR2 alpha cells (Fisher Scientific). Cells were plated one day before the assay in 384-well plates at 1500 cells/well and assayed in adherent mode by removing the media, patting on paper towel and adding 10 µl of 1 µM of UCN2 or vehicle control for 1 h. Cells were gently washed 3 times with wash buffer and rested for 6 h in incubator. Following rest, cells were restimulated with titrating concentrations of UCN2 with IBMX, at a final concentration of 250 µM. Reactions continued for 30 min at 37 °C followed by addition of detection reagents and a one-hour minimum incubation at room temperature. HTRF, a competitive immunoassay, produces a fluorescence signal read with an Envision multi-plate reader using an excitation of 330 nm and emissions of 615 and 665 nm. By interpolation from a cAMP standard curve, raw data were converted to nm cAMP and then expressed as percent effect of 1 µM UCN2 in vehicle control pretreatment conditions.

IVLSLDVPIGLLQILLEQARARAAREQATTNARILARVGHC-NH2 (C-terminus assumed) [UCN2, Urocortin 2]
Food Intake ([1]; single IP dose 1 mg/kg UCN2, next 24 h, individual animals (Fig. 2K), 1 mg/kg): 0.27 g and 0.3 g and 0.24 g and 0.15 g and 0.38 g and 0.46 g and 0.59 g | food intake following UCN2 dosing ([1]; single dose 1 mg/kg IP): decrease in food intake | plasma insulin levels during the oGTT versus vehicle [2]: No significant difference | cAMP response to subsequent UCN2 after UCN2 pre-treatment ([3]; 1 µM UCN2 for 1 h, wash, 6 h rest, restimulation): significantly blunts the cAMP activation response | cAMP response to increasing concentrations ([3]; CRHR2-transfected HEK 293 cells, 30 min at 37 °C, IBMX 250 µM): increases in a dose-dependent manner
